Data: article PMC10761396, “Evaluation of new alternative methods for the identification of estrogenic, androgenic and steroidogenic effects: a comparative in vitro/in silico study” (Archives of Toxicology, 2023)
“Also recorded” adds a separate entry of the source. Read-outs that look alike come from different tables or passages of the source.

Experiments:
[1] = system: aromatase; design: method as in US EPA ToxCast; details: ref US EPA ToxCast, cited from earlier work; for ToxCast (assays Comments), efficacy: borderline: less than 50% efficacy
[2] = system: AR; assay: ToxCast AR assays and final ToxCast call; details: for Final "true" call (ToxCast): AR effects, from active assays, cytotoxicity and pathway model; for ToxCast result: AR overall call from Supplementary Table 4; for Final "true" call (ToxCast) AR: from ToxCast assays and ToxCast Pathway Model
From the text: (§1) A rich source of data can be found in the EPA's ToxCast database (US EPA). This contains ED data for ~ 1800 chemicals in more than 700 high-throughput assay endpoints that cover a range of high-level cell responses. The US EPA is running an Endocrine Disruption Screening Program (EDSP), with the aim of prioritising chemicals using high-throughput screening methods and computational toxicology approaches to evaluate thousands of chemicals for ED activities. The OECD framework for ED assessment (OECD [2018]) requires animal testing at higher levels, where relevant in vitro alternatives are missing e.g. for developmental, reproductive, neurological and immune effects. However, such follow-up testing is not possible for the cosmetics industry especially in the EU due to the complete animal testing ban which came into force in March 2013 (EU [2009]). Even for other industries, animal models are not suitable for assessing ED effects due to issues relating to ethics, capacity, speed and relevance (Patisaul et al. [2018]). Therefore, chemicals which cannot be evaluated using in vivo method must be assessed using alternative methods e.g. in silico and in vitro methods listed in Levels 1 and 2 of the framework described in the OECD 150 test guideline (OECD [2018]).
(§2) The performance of different in silico models for ED effects tends to be evaluated on single model for a single effect, such as ER or AR binding, agonism or antagonism (normally by the developer), or a limited number of models using multiple chemicals (Weyrich et al. [2022]). Multi-organisation collaborations have also evaluated multiple models for a specific effect e.g. ER (Mansouri et al. [2016]) and AR (Mansouri et al. [2020]) effects. Therefore, we have conducted a side-by-side comparison of multiple different in silico models covering three pathways in ED, namely ER, AR and aromatase inhibition and compared these with ToxCast-derived final calls, as well as with results from in vitro assays. The efficiency of the in silico models was evaluated as a metric for the ability of the in silico model to generate concrete predictions. […] In vivo data were available for some but not all chemicals; therefore, an evaluation of the performance of the methods was made by comparing the derived overall calls from in silico models with those from the ToxCast database. The final call for each chemical evaluated in the ToxCast assays was made by considering the active-flagged assays and the corresponding cytotoxicity levels, the ToxCast Pathway Model (Browne et al. [2015]) and the CERAPP Potency Level (Mansouri et al. [2016]) for ER effects and the ToxCast Pathway Model (Kleinstreuer et al. [2017]) for AR effects (see Online Resource 1 Supplementary Tables 2, 4 and 6 for the outcome of the ER, AR and aromatase ToxCast assays, additional literature and final calls for each chemical and target).

[3] = system: H295R cells; assay: H295R steroidogenesis assay (oestrogen and androgen production); format: cell-based, human; details: for minimal effective concentration: Homo sapiens, NCI-H295R, 48 h
Description: The in vitro H295R Steroidogenesis Assay is based on the human adenocarcinoma cell line, NCI-H295R, in which the human steroidogenesis pathway is fully functional (OECD 2022). The effect of the test chemical on the production of 17β-estradiol and testosterone is measured using ERα CALUX and AR CALUX technology.
The test chemical was tested in two independent assays, each in triplicate.

[4] = system: ER; assay: ToxCast ER assays and final ToxCast call; details: for Final "true" call (ToxCast) ER: from active ToxCast assays, cytotoxicity, ToxCast Pathway Model and CERAPP Potency Level; for ToxCast result (ER): overall call from ToxCast data (Supplementary Table 2)
From the text: as §1, §2

[5] = target: T1, AR (Homo sapiens, UniProt P10275); assay: (anti-)AR CALUX receptor transactivation assay; format: cell-based; design: expressed in transfected cells; host or cells: CALUX cells (U2-OS is named only for the cytotoxicity CALUX)
T1 sequence (P10275 1-920): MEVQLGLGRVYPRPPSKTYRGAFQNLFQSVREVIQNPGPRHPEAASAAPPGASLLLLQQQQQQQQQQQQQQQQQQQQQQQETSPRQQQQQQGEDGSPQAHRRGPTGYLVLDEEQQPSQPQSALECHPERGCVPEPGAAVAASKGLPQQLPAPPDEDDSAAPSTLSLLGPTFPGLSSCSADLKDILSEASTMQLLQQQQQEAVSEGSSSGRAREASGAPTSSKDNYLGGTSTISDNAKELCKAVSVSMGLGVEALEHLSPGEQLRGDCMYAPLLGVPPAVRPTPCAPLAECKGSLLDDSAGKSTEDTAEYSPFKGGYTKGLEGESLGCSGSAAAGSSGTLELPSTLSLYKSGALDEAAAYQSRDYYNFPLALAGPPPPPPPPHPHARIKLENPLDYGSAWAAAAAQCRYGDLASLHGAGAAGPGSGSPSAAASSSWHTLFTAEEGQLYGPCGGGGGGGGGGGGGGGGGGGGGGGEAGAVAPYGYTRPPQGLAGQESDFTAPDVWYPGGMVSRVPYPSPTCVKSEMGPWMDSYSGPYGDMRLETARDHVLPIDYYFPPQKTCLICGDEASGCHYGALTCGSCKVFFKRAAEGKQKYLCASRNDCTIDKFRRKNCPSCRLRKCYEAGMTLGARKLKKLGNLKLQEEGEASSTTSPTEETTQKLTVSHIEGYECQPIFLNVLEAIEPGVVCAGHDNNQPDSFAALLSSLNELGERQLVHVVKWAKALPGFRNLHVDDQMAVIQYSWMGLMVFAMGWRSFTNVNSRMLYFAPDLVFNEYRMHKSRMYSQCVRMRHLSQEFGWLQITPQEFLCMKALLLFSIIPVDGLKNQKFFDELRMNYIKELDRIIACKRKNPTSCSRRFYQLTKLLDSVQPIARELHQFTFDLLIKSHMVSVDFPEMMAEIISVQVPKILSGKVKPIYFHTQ
Description: The human CALUX® assays were used to measure the impact of test compounds on estrogen and androgen pathways. […] Chemicals can activate (or inactivate, in the case of an antagonistic activity) a ligand-specific pathway by binding to the receptor (ER, AR), after which the receptor-ligand complex binds to specific DNA REs […], resulting in increased (or decreased) cellular expression of a marker protein (e.g., luciferase).
Chemicals were dissolved and diluted in DMSO. […] The cytotoxicity of each test chemical was assessed using the U2-OS based cytotoxicity CALUX bioassay. Concentrations causing >20% reduction of luminescence were considered cytotoxic. […] Luciferase production was quantified by measuring luminescence following addition of luciferin. For antagonist assays, a fixed concentration of receptor agonist was co-incubated with a range of concentrations of the test chemical. […] For the AR assays, dihydrotestosterone was the positive control for agonistic effects and flutamide was the positive control for antagonist effects.
Each test chemical was tested in triplicates in two independent experiments.

[6] = read-out: Steroidogenesis Androgenicity LEC
[7] = read-out: Steroidogenesis Estrogenicity LEC

Compound | ToxCast (Aromatase assays), positive/total [1] | Final "true" call (ToxCast) [2] | ToxCast result [2] | Final "true" call (ToxCast) AR [2] | minimal effective concentration [3, 6] [µM] | minimal effective concentration [3, 7] [µM] | Final "true" call (ToxCast) ER [4] | ToxCast result (ER) [4] | LEC, androgen production ([3]; decrease) [µM] | androgen production, fold of control ([3]; highest concentration tested, 100 µM) | outcome in the AR transactivation assay [5] | ToxCast (assays Comments), efficacy [1] [%] | ToxCast (assays Comments), efficacy ([1]; listed as 4-tert-Octylphenol) | ToxCast (Aromatase assays), assay listed as active ([1]; each listed assay name = active assay) | LEC, AR antagonism [5] [µM]
C[C@]12CCC(=O)C[C@@H]1CC[C@@H]1[C@@H]2CC[C@@]2(C)[C@H]1CC[C@]2(C)O [Mestanolone, mestanolone, reference compound] | 0/2 positive | Positive for agonism | AR agonist only | Positive for agonism | > 0.00316 | > 0.1 | Positive for agonism and antagonism | ER agonist and antagonist |  |  |  |  |  |  | 
O=c1c(-c2ccc(O)cc2)coc2cc(O)ccc12 [Daidzein, daidzein] | 0/2 positive | Inconclusive |  |  | 0.794 | > 3.16 | Positive for agonism and antagonism | ER agonist and antagonist | 0.77 | 0.06 fold of control | negative |  |  |  | 
CCCCN(CCCC)c1ccc(C(=O)c2ccccc2C(=O)O)c(O)c1 [DBABA, 2-[4-(dibutylamino)-2-hydroxybenzoyl]benzoic acid] | 0/2 positive | Negative | Negative | Negative | > 10 | > 10 | Inconclusive |  |  |  | negative |  |  |  | 
CC(C)(C)CC(C)(C)c1ccc(O)cc1 [4-TO, 4-tert-octylphenol] | 2/2 positive | Positive for antagonism | AR antagonist only | Positive for antagonism | > 1 |  | Positive for agonism | ER agonist only |  |  |  | 31.35 | Boarderline: less than 50% efficacy (31.35%) | TOX21_Aromatase_Inhibition; also recorded: TOX21_Aromatase_Inhibition_viability | 0.44
